Data on ten molecules can be found in PubChem BioAssay AID623924 (Vanderbilt Specialized Chemistry Center, 2012).

Each structure is given as a SMILES string. Calls of active or inactive are those of the source.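 Rule for the calls: active = response changes with concentration, giving a dose-dependent curve as judged by the depositor; inactive = the rest, with no dose-dependent response.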

For this assay, the target named is Muscarinic acetylcholine receptor M1 (Homo sapiens) (UniProt P11229). Nature of the assay: human M1 receptor positive allosteric modulation, SAR follow-up, selectivity assay for M4 PAM optimization, CHO-K1 cells, calcium fluorescence (AID 623924). The settings on record: CHO-K1 hM1, calcium fluorescence, ACh EC20 potentiation; for % ACh max response: at 30 µM (top of the series).
Muscarinic acetylcholine receptor M1 (Homo sapiens), sequence (P11229 whole entry, looked up): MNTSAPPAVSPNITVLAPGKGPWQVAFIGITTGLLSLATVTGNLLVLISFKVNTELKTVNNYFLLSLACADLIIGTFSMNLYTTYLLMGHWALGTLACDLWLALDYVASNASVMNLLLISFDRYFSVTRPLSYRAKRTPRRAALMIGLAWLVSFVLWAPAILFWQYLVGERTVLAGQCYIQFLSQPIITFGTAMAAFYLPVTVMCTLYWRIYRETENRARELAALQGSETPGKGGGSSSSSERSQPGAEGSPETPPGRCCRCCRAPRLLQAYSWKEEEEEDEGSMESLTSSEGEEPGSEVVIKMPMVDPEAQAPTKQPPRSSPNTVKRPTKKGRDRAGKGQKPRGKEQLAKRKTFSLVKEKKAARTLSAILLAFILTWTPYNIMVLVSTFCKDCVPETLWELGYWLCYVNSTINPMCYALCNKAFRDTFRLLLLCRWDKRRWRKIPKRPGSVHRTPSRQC

On to `Cc1nc2sc(C(=O)NCc3ccccc3)c(N)c2c(C)c1Cl`, for which the outcome was inactive. As for `Cc1nc2sc(C(=O)NCc3nccs3)c(N)c2c(C)c1Cl`, the “% ACh max response” value was “inactive”. For the molecule `Cc1nc2sc(C(=O)NCc3cccnc3)c(N)c2c(C)c1Cl`, the result was inactive. Consider `Cc1nc2sc(C(=O)NCc3ccc4c(c3)OCO4)c(N)c2c(C)c1Cl`, for which the result was inactive. As for `COc1ccc(C)c2sc(NC(=O)c3ccncc3)nc12`, the “% ACh max response” value is “inactive”. Consider `Cc1nc2sc(C(=O)NCc3ccncc3)c(N)c2c(C)c1Cl`, for which the result was inactive. Take `Cc1nc2sc(C(=O)NCCc3ccncc3)c(N)c2c(C)c1Cl`: the “% ACh max response” value was “inactive”.

The EC50 is the concentration at which the effect is half-maximal. Take `Cc1nc2sc(C(=O)NC3CC3)c(N)c2c(C)c1Cl`: the EC50 is 969 nM. In the case of `Cc1nc2sc(C(=O)NCc3cccc(F)c3F)c(N)c2c(C)c1Cl`, the “% ACh max response” value was “inactive”. Turning to `Cc1nc2sc(C(=O)NCc3ccncn3)c(N)c2c(C)c1Cl`, the “% ACh max response” value is “inactive”.
